# Data reported in ChEMBL document CHEMBL4699477, “Tricyclic sulfones as potent, selective and efficacious RORγt inverse agonists - Exploring C6 and C8 SAR using late-stage functionalization” (Bioorg Med Chem Lett, 2020).
# Tests used:
# [1] = Clearance in dog at 1 mg/kg, iv; format: ADME, organism-based, Canis lupus familiaris; details: in vivo
# [2] = Clearance in rat at 2 mg/kg, iv; format: ADME, organism-based; details: in vivo
# [3] = Cmax in BALB/c mouse at 4 mg/kg, po; format: ADME, organism-based; design: route oral, dose 4 mg/kg; details: in vivo
# [4] = Half life in cynomolgus monkey at 1 mg/kg, iv; format: ADME, organism-based, Macaca fascicularis; details: in vivo
# [5] = target: Voltage-gated inwardly rectifying potassium channel KCNH2 (Homo sapiens, UniProt Q12809); experiment: Inhibition of human ERG by patch clamp assay
# [6] = Metabolic stability in mouse liver microsomes assessed as half life; format: ADME, Microsome
# [7] = Solubility of compound at pH 7.4; format: physicochemical; details: buffer
# [8] = Total AUC in BALB/c mouse at 4 mg/kg, po; format: ADME, organism-based; design: time AUCmax, route oral, dose 4 mg/kg; details: in vivo
# [9] = Total AUC in rat at 4 mg/kg, po; format: ADME, organism-based; design: time AUCmax, route oral, dose 4 mg/kg; details: in vivo
# [10] = Half life in dog at 1 mg/kg, iv; format: ADME, organism-based, Canis lupus familiaris; details: in vivo
# [11] = Permeability in human Caco-2 cells; format: ADME, cell-based; details: read-out: permeability
# [12] = Total AUC in cynomolgus monkey at 1 mg/kg, iv; format: ADME, organism-based, Macaca fascicularis; design: time AUCmax, route intravenous, dose 1 mg/kg; details: in vivo
# [13] = Solubility of compound at pH 1; format: physicochemical; details: buffer
# [14] = target: T1, Nuclear receptor ROR-gamma (Mus musculus, UniProt P51450); experiment: Inverse agonist activity at RORgammat in mouse Th17 cells; format: cell-based
# T1 sequence (P51450 whole entry): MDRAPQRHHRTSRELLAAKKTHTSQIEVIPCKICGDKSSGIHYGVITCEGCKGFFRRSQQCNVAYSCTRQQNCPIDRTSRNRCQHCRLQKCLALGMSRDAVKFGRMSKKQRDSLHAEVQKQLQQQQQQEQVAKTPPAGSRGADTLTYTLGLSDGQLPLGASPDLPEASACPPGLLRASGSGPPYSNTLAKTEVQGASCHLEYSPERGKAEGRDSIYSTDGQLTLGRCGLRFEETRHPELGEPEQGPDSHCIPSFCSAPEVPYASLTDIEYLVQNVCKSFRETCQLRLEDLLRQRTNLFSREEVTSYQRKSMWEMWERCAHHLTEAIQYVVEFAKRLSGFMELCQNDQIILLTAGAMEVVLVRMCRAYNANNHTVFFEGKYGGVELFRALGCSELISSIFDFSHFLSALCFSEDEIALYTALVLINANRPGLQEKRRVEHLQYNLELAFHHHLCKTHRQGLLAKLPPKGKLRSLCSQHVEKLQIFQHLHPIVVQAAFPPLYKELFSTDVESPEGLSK
# [15] = Solubility of compound at pH 6.5; format: physicochemical; details: buffer
# [16] = target: T2, Nuclear receptor ROR-alpha (Homo sapiens, UniProt P35398); experiment: Inhibition of GAL4-fused RORalpha (unknown origin)
# T2 sequence (P35398 whole entry): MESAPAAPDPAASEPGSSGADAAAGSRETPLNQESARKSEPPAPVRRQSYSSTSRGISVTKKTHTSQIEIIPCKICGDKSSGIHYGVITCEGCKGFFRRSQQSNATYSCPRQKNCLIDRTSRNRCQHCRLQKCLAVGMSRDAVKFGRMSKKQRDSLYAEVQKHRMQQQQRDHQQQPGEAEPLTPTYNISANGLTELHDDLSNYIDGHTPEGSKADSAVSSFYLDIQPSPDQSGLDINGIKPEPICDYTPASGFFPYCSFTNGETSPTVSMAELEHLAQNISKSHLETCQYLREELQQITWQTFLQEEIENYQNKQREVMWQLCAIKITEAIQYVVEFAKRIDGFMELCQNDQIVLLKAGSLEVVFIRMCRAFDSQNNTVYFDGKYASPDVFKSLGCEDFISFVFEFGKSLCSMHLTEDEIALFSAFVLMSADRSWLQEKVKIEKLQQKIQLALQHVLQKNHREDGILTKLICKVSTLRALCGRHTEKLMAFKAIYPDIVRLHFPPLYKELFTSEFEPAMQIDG
# [17] = Volume of distribution at steady state in cynomolgus monkey at 1 mg/kg, iv; format: ADME, organism-based, Macaca fascicularis; details: in vivo, read-out: Vdss
# [18] = target: T3, Oxysterols receptor LXR-alpha (Homo sapiens, UniProt Q13133); experiment: Inverse agonist activity of LXRalpha (unknown origin)
# T3 sequence (Q13133 whole entry): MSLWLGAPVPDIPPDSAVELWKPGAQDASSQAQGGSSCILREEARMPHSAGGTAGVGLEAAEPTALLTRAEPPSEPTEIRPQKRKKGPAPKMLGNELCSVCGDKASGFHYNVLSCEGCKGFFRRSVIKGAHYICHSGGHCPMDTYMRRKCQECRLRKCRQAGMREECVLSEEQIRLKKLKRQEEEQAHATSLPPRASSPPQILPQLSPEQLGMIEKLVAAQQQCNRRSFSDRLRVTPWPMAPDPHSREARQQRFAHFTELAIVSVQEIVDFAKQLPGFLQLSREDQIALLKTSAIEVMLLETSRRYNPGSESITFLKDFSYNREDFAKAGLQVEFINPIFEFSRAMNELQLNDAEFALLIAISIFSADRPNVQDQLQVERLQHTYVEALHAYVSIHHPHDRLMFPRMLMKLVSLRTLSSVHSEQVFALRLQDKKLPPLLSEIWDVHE
# [19] = Half life in rat at 2 mg/kg, iv; format: ADME, organism-based; details: in vivo
# [20] = target: T4, Nuclear receptor ROR-beta (Homo sapiens, UniProt Q92753); experiment: Inhibition of GAL4-fused RORbeta (unknown origin)
# T4 sequence (Q92753 whole entry): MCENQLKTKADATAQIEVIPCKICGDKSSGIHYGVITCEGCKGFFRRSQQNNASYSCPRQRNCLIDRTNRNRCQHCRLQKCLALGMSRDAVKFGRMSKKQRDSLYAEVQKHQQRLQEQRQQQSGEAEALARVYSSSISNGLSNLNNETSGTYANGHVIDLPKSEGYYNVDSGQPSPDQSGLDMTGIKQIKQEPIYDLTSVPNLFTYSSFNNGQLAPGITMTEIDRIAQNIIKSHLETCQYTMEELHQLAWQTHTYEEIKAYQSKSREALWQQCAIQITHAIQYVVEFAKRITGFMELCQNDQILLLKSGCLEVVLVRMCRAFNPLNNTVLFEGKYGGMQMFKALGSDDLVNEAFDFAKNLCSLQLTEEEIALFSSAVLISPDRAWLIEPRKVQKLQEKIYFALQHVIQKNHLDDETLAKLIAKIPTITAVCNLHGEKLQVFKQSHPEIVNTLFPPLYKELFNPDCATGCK
# [21] = Total AUC in BALB/c mouse at 2 mg/kg, iv; format: ADME, organism-based; design: route intravenous, time AUCmax, dose 2 mg/kg; details: in vivo
# [22] = Cmax in cynomolgus monkey at 2 mg/kg, po; format: ADME, organism-based, Macaca fascicularis; design: route oral, dose 2 mg/kg; details: in vivo
# Chain of Voltage-gated inwardly rectifying potassium channel KCNH2 (Q12809 whole entry): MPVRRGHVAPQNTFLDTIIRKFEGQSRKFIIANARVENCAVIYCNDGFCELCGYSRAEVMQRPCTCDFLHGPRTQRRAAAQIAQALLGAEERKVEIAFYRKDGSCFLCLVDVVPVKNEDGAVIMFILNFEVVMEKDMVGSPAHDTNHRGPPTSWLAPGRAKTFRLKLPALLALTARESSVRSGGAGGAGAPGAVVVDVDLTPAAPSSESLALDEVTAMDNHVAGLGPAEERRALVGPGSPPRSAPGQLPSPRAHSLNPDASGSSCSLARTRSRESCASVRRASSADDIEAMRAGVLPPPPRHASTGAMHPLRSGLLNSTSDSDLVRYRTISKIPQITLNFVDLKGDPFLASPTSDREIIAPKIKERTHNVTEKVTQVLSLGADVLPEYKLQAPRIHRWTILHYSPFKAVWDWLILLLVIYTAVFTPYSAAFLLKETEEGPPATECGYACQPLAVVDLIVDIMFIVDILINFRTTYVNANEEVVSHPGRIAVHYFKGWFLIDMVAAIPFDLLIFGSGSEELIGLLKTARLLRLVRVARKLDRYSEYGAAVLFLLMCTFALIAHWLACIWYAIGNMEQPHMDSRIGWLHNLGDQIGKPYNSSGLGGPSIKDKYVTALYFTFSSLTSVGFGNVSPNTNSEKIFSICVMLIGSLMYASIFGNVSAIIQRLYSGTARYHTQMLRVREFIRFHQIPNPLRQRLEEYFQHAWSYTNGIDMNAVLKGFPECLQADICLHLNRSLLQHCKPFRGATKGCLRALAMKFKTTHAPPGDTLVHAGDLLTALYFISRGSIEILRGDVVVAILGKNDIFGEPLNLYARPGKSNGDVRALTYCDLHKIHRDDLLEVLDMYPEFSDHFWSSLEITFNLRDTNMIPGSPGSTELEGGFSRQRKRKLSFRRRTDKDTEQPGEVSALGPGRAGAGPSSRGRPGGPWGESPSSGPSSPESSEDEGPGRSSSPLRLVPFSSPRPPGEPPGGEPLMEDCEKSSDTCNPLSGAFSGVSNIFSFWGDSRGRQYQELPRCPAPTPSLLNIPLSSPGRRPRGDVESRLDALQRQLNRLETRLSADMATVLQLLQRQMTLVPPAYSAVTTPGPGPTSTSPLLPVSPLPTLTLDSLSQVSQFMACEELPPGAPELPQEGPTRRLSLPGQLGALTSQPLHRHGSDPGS
smiles,measurement,setting,value
C[C@H]1C[C@H](C(=O)O)CC[C@H]1C(=O)N1CC[C@@]2(S(=O)(=O)c3ccccc3)c3cc(F)c(C(F)(C(F)(F)F)C(F)(F)F)cc3CC[C@@H]12,clearance,[1],0.3 mL/min/kg
same,clearance,[2],2.6 mL/min/kg
same,Cmax,[3],4.6 µM
same,half-life,[4],27 h
same,IC50,[5],18 µM
same,half-life,[6],> 2 h
same,solubility,[7],1600 µg/mL
same,AUC,[8],39 µM·h
same,AUC,[9],44 µM·h
same,half-life,[10],28 h
same,Papp,[11],12 ×10⁻⁶ cm/s
same,AUC,[12],23 µM·h
same,solubility,[13],1.4 µg/mL
same,EC50,[14],0.002 µM
same,solubility,[15],350 µg/mL
same,EC50,[16],> 10 µM
same,Vd,[17],1.2 L/kg
same,EC50,[18],> 12 µM
same,half-life,[19],5.8 h
same,EC50,[20],> 10 µM
same,AUC,[21],20 µM·h
same,Cmax,[22],3.9 µM
